The supplement of paper PMC10627819

Key:
S. aureus Newman [1] = assay: fitness (endpoint OD595 vs no drug) (fraction); higher = more growth
Summary of the method: (§1)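 Plates with 384 wells were inoculated at OD595 0.01 using 30 µl of TSB, LB Lennox or CY, or 55 µl for S. pneumoniae. Incubation was at 37 °C, with OD595 measured every 30 min for 14 h. Fitness is the stationary-phase transition optical density over the robust mean of no-drug control wells, after first-reading background subtraction; it is capped at 1.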

B. subtilis 168 [2] = assay: as above
Summary of the method: as §1

S. pneumoniae D39V [3] = assay: as above
Summary of the method: as §1

S. aureus Newman [4] = assay: Bliss interaction score (quartile over a dose matrix) (fitness difference); higher = more antagonism (negative = synergy)
Summary of the method: (§2)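 Growth was read as OD595 when cultures entered stationary phase, and each value was divided by the plate's robust no-drug mean and capped at 1. This normalised ratio is the fitness value, and fitness for each single drug came from the combination data. The Bliss score subtracts the expected fitness, taken as the product, from the observed fitness and is given as quartiles across technical, biological and donor/recipient replicates.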

B. subtilis 168 [5] = assay: as above
Summary of the method: as §2

S. pneumoniae D39V [6] = assay: as above
Summary of the method: as §2

S. aureus DSM 20231 = assay: as above
Summary of the method: as §2
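For Bliss interaction score (quartile over a dose matrix) in this document: first quartile when negative (synergy) and third quartile when positive (antagonism).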

Cn1c2cccc(=O)c-2nc2ccccc21 [Pyocyanin] + CN(C)c1cc(NC(=O)CNC(C)(C)C)c(O)c2c1C[C@H]1C[C@H]3[C@H](N(C)C)C(O)=C(C(N)=O)C(=O)[C@@]3(O)C(O)=C1C2=O [Tigecycline]
fitness
Details | first compound 0.325 µg/mL | first compound 0.65 µg/mL | first compound 1.25 µg/mL | first compound 1.3 µg/mL | first compound 2.5 µg/mL | first compound 5 µg/mL
B. subtilis 168 [2], partner 0.039 µg/mL | – | – | 0.956 | – | 0.903 | 0.786
B. subtilis 168 [2], partner 0.078 µg/mL | – | – | 0.953 | – | 0.876 | 0.747
B. subtilis 168 [2], partner 0.156 µg/mL | – | – | 0.935 | – | 0.863 | 0.762
S. aureus Newman [1], partner 0.039 µg/mL | – | – | 0.879 | – | 0.81 | 0.426
S. aureus Newman [1], partner 0.078 µg/mL | – | – | 0.854 | – | 0.808 | 0.412
S. aureus Newman [1], partner 0.156 µg/mL | – | – | 0.886 | – | 0.807 | 0.401
S. pneumoniae D39V [3], partner 0.65 µg/mL | 0.965 | 0.975 | – | 0.697 | – | –
S. pneumoniae D39V [3], partner 1.3 µg/mL | ≥ 1 | 0.966 | – | 0.708 | – | –
S. pneumoniae D39V [3], partner 2.6 µg/mL | 0.979 | 0.928 | – | 0.668 | – | –

fitness, B. subtilis 168 [2], one replicate
Details | first compound 1.25 µg/mL | first compound 2.5 µg/mL | first compound 5 µg/mL
partner 0.125 µg/mL | 0.964 | 0.97 | 0.955
partner 0.25 µg/mL | 0.865 | 0.847 | 0.882
partner 0.5 µg/mL | 0.91 | 0.867 | 0.801

Details | Bliss interaction score
B. subtilis 168 [5] | -0.04
S. aureus DSM 20231 | -0.0925
S. aureus Newman [4] | 0.0936
S. pneumoniae D39V [6] | 0.0539

Cn1c2cccc(=O)c-2nc2ccccc21 [Pyocyanin] + CN[C@@H]1[C@H](O[C@H]2[C@H](O[C@H]3[C@H](O)[C@@H](O)[C@H](N=C(N)N)[C@@H](O)[C@@H]3N=C(N)N)O[C@@H](C)[C@]2(O)C=O)O[C@@H](CO)[C@H](O)[C@H]1O [Streptomycin]
fitness
Details | partner 1 µg/mL | partner 2 µg/mL | partner 4 µg/mL | partner 8 µg/mL
B. subtilis 168 [2], first compound 1.25 µg/mL | – | 0.938 | 0.765 | –
B. subtilis 168 [2], first compound 2.5 µg/mL | – | 0.929 | 0.879 | –
B. subtilis 168 [2], first compound 5 µg/mL | – | 0.818 | 0.791 | 0.686
S. aureus Newman [1], first compound 1.25 µg/mL | 0.891 | 0.844 | – | –
S. aureus Newman [1], first compound 2.5 µg/mL | 0.796 | 0.693 | – | –
S. aureus Newman [1], first compound 5 µg/mL | 0.427 | 0.308 | 0.253 | –
S. pneumoniae D39V [3], first compound 0.325 µg/mL | – | ≥ 1 | ≥ 1 | 0.935
S. pneumoniae D39V [3], first compound 0.65 µg/mL | – | 0.943 | 0.889 | 0.791
S. pneumoniae D39V [3], first compound 1.3 µg/mL | – | – | 0.734 | 0.592

fitness, S. pneumoniae D39V [3], one replicate
Details | first compound 0.325 µg/mL | first compound 0.65 µg/mL | first compound 1.3 µg/mL
partner 2 µg/mL | – | – | 0.756
partner 16 µg/mL | 0.649 | 0.61 | 0.475

Details | Bliss interaction score
B. subtilis 168 [5] | 0.474
S. aureus DSM 20231 | 0.109
S. aureus Newman [4] | -0.0643
S. pneumoniae D39V [6] | -0.103
